Source: article PMC5068727, “Low-dose oxytocin delivered intranasally with Breath Powered device affects social-cognitive behavior: a randomized four-way crossover trial with nasal cavity dimension assessment” (Translational Psychiatry, 2015)

Columns and labels:
Type in all cases: in vivo, human
[1] = system: healthy male adults; experiment: Social cognition task: emotional and trustworthiness ratings of facial images; conditions: 1 IU IV over 20 min, estimated mean (SE), linear mixed model, SEM
Experimental: Participants completed the social cognition task 40 min after treatment in a magnetic resonance imaging scanner while functional magnetic resonance imaging and physiology data were recorded (results to be reported separately). Participants were presented with visual stimuli through magnetic resonance imaging-compatible goggles (VisualSystem; NordicNeuroLab, Bergen, Norway) using E-Prime 2.0 (Psychology Software Tools, PA, USA) and responded using a grip response collection system (ResponseGrip, NordicNeuroLab).
For the primary emotional expression evaluation outcome measure, participants were presented with 20 male and 20 female faces (as used previously[55]) displaying angry, happy and emotionally ambiguous facial expressions (derived from the Karolinska Directed Emotional Faces database[56]) and 20 images of geometrical shapes (data not presented). Following each presentation, participants were asked either: How angry is this person? (anchors: not angry—very angry) or How happy is this person? (anchors: not happy—very happy). Q2 was always the same: How much would you trust this person? (anchors: not at all—very much). Participants were asked to rank their answer on a visual analog scale from 1 to 5, with location of the cursor on the visual analog scale randomized for each question. Mean ratings for each of the questions were averaged per session within each of the emotional categories, yielding seven behavioral variables (Q1: Happy face—happy, Happy face—angry, ambiguous face—happy, ambiguous face—angry, angry face—happy, angry face—angry; Q2: Trust). These stimuli and questions were chosen to assess three levels of emotion perception; ambiguous, non-ambiguous with corresponding cues and ratings (for example, angry ratings of angry faces) and non-ambiguous with conflicting cues and ratings (for example, angry ratings of happy faces).
(§1) Analysis was conducted using IBM SPSS Statistics version 22 (IBM, Armonk, NY, USA) to explore pharmacokinetics and examine the impact of treatment on outcome measures. A linear mixed-model (LMM) approach was adopted[58] for the analysis of emotional expression evaluation, pharmacokinetics, state anxiety and trustworthiness. In contrast to a repeated-measures analysis of variance approach, LMM allows for the inclusion of participants in the analysis even if data are missing for some of the treatment conditions. All the models were fitted using an unstructured matrix. For any significant main effects (that is, P<0.05), post hoc tests were performed with the adjustment of critical P-values to correct for multiple comparisons using a 5% false discovery rate.[59] Experimental treatment was both a fixed and repeated effect in the LMM testing the impact of treatment on emotion and trustworthiness ratings. To investigate the impact of treatment on anxiety and blood plasma concentration of OT, AVP and cortisol, an LMM was fitted with three fixed factors (treatment, time, treatment × time) and one repeated factor (treatment).

[2] = Open label pilot study of peripheral OT pharmacokinetics; conditions: 5 participants, 1IU IV in 200ml 0.9% NaCl, 600ml/hour over 20 minutes, 30 to 60 minutes post-administration
Experimental: An open label pilot study comparing the pharmacokinetics of 24IU OPN-OT and 1IU IV-OT was conducted with 5 eligible participants (4 of these participants participated in the main study) to ensure that 1IU IV-OT would equal or exceed the serum exposure following IN-OT treatment. The IV OT (1IU) was mixed in 200ml 0.9% NaCl and administered at an infusion rate of 600ml/hour over 20 minutes. Blood was sampled just before administration (baseline) and at seven timepoints after completion of administration (10, 20, 30, 45, 60, 90, and 120 minutes). […] There was a one-month washout period, at the minimum, between participation in the pilot study and the experimental phase.

[3] = system: healthy male adults; experiment: Self-reported adverse events; conditions: 1 IU IV; 16 healthy males, single dose
Experimental: At various points (−20, 0, 10, 30, 60 and 120 mins relative to start of functional magnetic resonance imaging) throughout testing, participants reported the presence and severity of any adverse effects.

[4] = system: cortisol; experiment: Cortisol blood plasma concentration (ELISA); conditions: 1 IU IV, LMM pairwise comparison
Experimental: (§2) Blood samples were collected to assess peripheral levels of OT, AVP and cortisol at baseline and five time points after the completion of the 20-min IV administration (0, 10, 30, 60 and 120 mins) throughout the session. Up to two punctures with catheter placement were made to collect these blood samples, which were centrifuged at 4 °C within 5 min of blood draw with plasma frozen at −80 °C. Enzyme-linked immunosorbent assay using commercial kits (Enzo Life Sciences, Farmingdale, NY, USA) was performed using standard techniques (including sample extraction[57]).
as §1

[5] = Oxytocin blood plasma concentration (ELISA); conditions: 1 IU IV over 20 min
Experimental: as §2
as §1, with “Experimental treatment was both a fixed and repeated effect in the LMM testing the impact of treatment on emotion and trustworthiness ratings. To investigate the impact of treatment on anxiety and blood plasma concentration of OT, AVP and cortisol, an LMM was fitted with three fixed factors (treatment, time, treatment × time) and one repeated factor (treatment).” left out

Plasma OT concentration compared with placebo ([5]; baseline and 0, 10, 30, 60, 120 min, ELISA with extraction, LMM pairwise comparison, P<0.001): significantly increased
SMILES: CC[C@H](C)[C@@H]1NC(=O)[C@H](Cc2ccc(O)cc2)NC(=O)[C@@H](N)CSSC[C@@H](C(=O)N2CCC[C@H]2C(=O)N[C@@H](CC(C)C)C(=O)NCC(N)=O)NC(=O)[C@H](CC(N)=O)NC(=O)[C@H](CCC(N)=O)NC1=O [IV OT, oxytocin]
Angry ratings of ambiguous faces ([1]; single dose, task 40 min after treatment, visual analog scale 1 to 5, 16 healthy males): 2.32 (0.18) | Trustworthiness ([1]; collapsed across emotional categories, scale 1 to 5): 3.16 (0.05) | Angry ratings of angry faces ([1]; scale 1 to 5): 3.68 (0.2) | Angry ratings of happy faces ([1]; scale 1 to 5): 1.24 (0.02) | Happy ratings of ambiguous faces ([1]; scale 1 to 5): 2.38 (0.14) | Happy ratings of happy faces ([1]; scale 1 to 5): 4.31 (0.13) | Peripheral (serum) OT levels relative to 24IU OPN-OT [2]: reasonably approximated the levels achieved after 24IU OPN-OT administration | Adverse events (for example, brief dizziness) [3]: three | Cortisol blood plasma concentration compared with 8 IU OPN-OT [4]: but not 8 IU OPN-OT | Cortisol blood plasma concentration compared with 24 IU OPN-OT ([4]; P<0.001): significantly increased | Cortisol blood plasma concentration compared with placebo ([4]; P=0.01): significantly increased | Plasma OT concentration, simple effect for time ([5]; shortly after IV administration compared with all other time points, all P<0.001): significantly higher concentrations shortly after IV administration
